{
  "source": "patent US20250127863A1",
  "about": "“ANTIMICROBIAL PEPTIDE FOR ONYCHOMYCOSIS” (CBMR SCIENTIFIC NANOSCIENCE B.V., priority 2019, published 2025)",
  "experiment_in_all_cases": "MIC90 growth inhibition",
  "format_in_all_cases": "cell-based",
  "settings_in_all_cases": "RPMI 1640 one-fourth strength",
  "key": {"Sporothrix schenckii": {"system": "Sporothrix schenckii", "description": "(§1) The minimum inhibitory concentration (MIC) value is defined as the lowest sample concentration that inhibited growth. In the Examples, the MIC90 value is presented, which MIC90 values are determined according to established methods known to the person with the skills in the relevant art. Experiments; 1×10E5 CFU of various strains/ml were incubated for 24-48 h at 37° C. in 4× diluted medium of RPMI 1640 with the indicated concentrations of antimicrobial peptide hLF(1-11) [SEQ ID NO: 3]. As controls various strains cells were incubated for 24-48 h at 37° C. with no agent (antimicrobial peptide), and subsequently, growth of the microbial organism (e.g. yeast, bacterium) was monitored by using spectrophotometry with a spectrophotometer at 620 nm. […] ND=Not done. Representative single assay data are listed rather than a range, for clarity reasons and for ease of comparison of peptide efficacy. The MIC was calculated as the lowest antibiotic (antimicrobial peptide) concentration at which growth of the assessed yeast or bacterium (microbe) was inhibited (inhibitory concentration IC90)."}, "Aspergillus ungius": {"system": "Aspergillus ungius", "description": "as §1"}, "Cryptococcus albidus": {"system": "Cryptococcus albidus", "description": "as §1"}, "[1]": {"system": "Saccharomyces cerivisiae ATCC 2602", "description": "as §1"}, "[2]": {"system": "Staphylococcus aureus (MRSA)", "description": "as §1"}, "Nannizia gypsea": {"system": "Nannizia gypsea", "description": "as §1"}, "[3]": {"system": "Malassezia pachydermatis CBS-1879", "description": "as §1"}, "[4]": {"system": "Trichophyton interdigitale", "description": "as §1"}, "Aspergillus spp": {"system": "Aspergillus spp", "description": "as §1"}, "[5]": {"system": "Malassezia furfur CBS 7019", "description": "as §1"}, "[6]": {"system": "Malassezia furfur CBS 1878", "description": "as §1"}, "Meyerozyma spp.": {"system": "Meyerozyma spp.", "description": "as §1"}, "Trichophyton violaceum": {"system": "Trichophyton violaceum", "description": "as §1"}, "[7]": {"system": "Saccharomyces cerevisiae spp", "description": "as §1"}, "Nannizzia incurvata": {"system": "Nannizzia incurvata", "description": "as §1"}, "C. neoformans": {"system": "C. neoformans", "description": "as §1"}, "Penicillium digitatum": {"system": "Penicillium digitatum", "description": "as §1"}, "[8]": {"system": "Staphylococcus aureus 10649", "description": "as §1"}, "Penicillium italicum": {"system": "Penicillium italicum", "description": "as §1"}, "[9]": {"system": "Malassezia pachydermatis CBS 1883", "description": "as §1"}, "Mucor spp": {"system": "Mucor spp", "description": "as §1"}, "Trichophyton tonsurans": {"system": "Trichophyton tonsurans", "description": "as §1"}, "[10]": {"system": "Malassezia furfur CBS-7982", "description": "as §1"}, "Fusarium solani": {"system": "Fusarium solani", "description": "as §1"}, "Aspergillus sydowii": {"system": "Aspergillus sydowii", "description": "as §1"}, "Candida spp.": {"system": "Candida spp.", "description": "as §1"}, "Cladosporium trichoides": {"system": "Cladosporium trichoides", "description": "as §1"}, "Torula spp": {"system": "Torula spp", "description": "as §1"}, "[11]": {"system": "Malassezia restricta CBS 7877", "description": "as §1"}, "Cryptococcus curvatus": {"system": "Cryptococcus curvatus", "description": "as §1"}, "[12]": {"system": "Saccharomyces cerivisiae ATCC 2601", "description": "as §1"}, "Microsporum canis": {"system": "Microsporum canis", "description": "as §1"}, "Trichosporon cutaneum": {"system": "Trichosporon cutaneum", "description": "as §1"}, "Penicillium expansum": {"system": "Penicillium expansum", "description": "as §1"}, "Rhizopus spp": {"system": "Rhizopus spp", "description": "as §1"}, "Streptococcus mutans": {"system": "Streptococcus mutans", "description": "as §1"}, "Phialophora verrucosa": {"system": "Phialophora verrucosa", "description": "as §1"}, "[13]": {"system": "Malassezia furfur CBS-9372", "description": "as §1"}, "[14]": {"system": "Streptocococcus mitis 032", "description": "as §1"}, "Microsporum gypseum": {"system": "Microsporum gypseum", "description": "as §1"}, "Cryptococcus neoformans": {"system": "Cryptococcus neoformans", "description": "as §1"}, "Aspergillus tamarii": {"system": "Aspergillus tamarii", "description": "as §1"}, "[15]": {"system": "Malassezia pachydermatis CBS 1880", "description": "as §1"}, "Pichia membramfaciens": {"system": "Pichia membramfaciens", "description": "as §1"}},
  "note": "No end group written: not given here.",
  "data": [
    {"sequence": "GRRRRSVQWCA [hLF1-11, Gly Arg Arg Arg Arg Ser Val Gln Trp Cys Ala]", "values": [
      {"measurement": "Inhibitory concentration MIC (MIC90)", "setting": "Sporothrix schenckii", "value": "MIC = 2-10 μg/ml"},
      {"measurement": "Inhibitory concentration MIC (MIC90)", "setting": "Aspergillus ungius", "value": "MIC = 3.1-25 μg/ml"},
      {"measurement": "Inhibitory concentration MIC (MIC90)", "setting": "Cryptococcus albidus", "value": "MIC = 25 μg/ml"},
      {"measurement": "Inhibitory concentration MIC (MIC90)", "setting": "[1]", "value": "MIC = 25 μg/ml"},
      {"measurement": "Inhibitory concentration MIC (MIC90)", "setting": "[2]", "value": "MIC = 1.6 μg/ml"},
      {"measurement": "Inhibitory concentration MIC (MIC90)", "setting": "Nannizia gypsea", "value": "MIC = 30 μg/ml"},
      {"measurement": "Inhibitory concentration MIC (MIC90)", "setting": "[3]", "value": "MIC = 50 μg/ml"},
      {"measurement": "Inhibitory concentration MIC (MIC90)", "setting": "[4]", "value": "MIC = 6.3-45 μg/ml"},
      {"measurement": "Inhibitory concentration MIC (MIC90)", "setting": "Aspergillus spp", "value": "MIC = 2.5-12.5 μg/ml"},
      {"measurement": "Inhibitory concentration MIC (MIC90)", "setting": "[5]", "value": "MIC = 12.5-50 μg/mL"},
      {"measurement": "Inhibitory concentration MIC (MIC90)", "setting": "[6]", "value": "MIC = 12.5-50 μg/mL"},
      {"measurement": "Inhibitory concentration MIC (MIC90)", "setting": "Meyerozyma spp.", "value": "MIC = 25-50 μg/mL"},
      {"measurement": "Inhibitory concentration MIC (MIC90)", "setting": "Trichophyton violaceum", "value": "MIC = 40 μg/ml"},
      {"measurement": "Inhibitory concentration MIC (MIC90)", "setting": "[7]", "value": "MIC = 0.63-50 μg/ml"},
      {"measurement": "Inhibitory concentration MIC (MIC90)", "setting": "Nannizzia incurvata", "value": "MIC = 18 μg/ml"},
      {"measurement": "Inhibitory concentration MMC", "setting": "C. neoformans", "value": "MMC = 50 μg/ml"},
      {"measurement": "Inhibitory concentration MIC (MIC90)", "setting": "Penicillium digitatum", "value": "MIC = 8 μM"},
      {"measurement": "Inhibitory concentration MIC (MIC90)", "setting": "[8]", "value": "MIC = 1.6 μg/ml"},
      {"measurement": "Inhibitory concentration MIC (MIC90)", "setting": "Penicillium italicum", "value": "MIC = 8 μM"},
      {"measurement": "Inhibitory concentration MIC (MIC90)", "setting": "[9]", "value": "MIC = 25-50 μg/mL"},
      {"measurement": "Inhibitory concentration MIC (MIC90)", "setting": "Mucor spp", "value": "MIC = 25-50 μg/mL"},
      {"measurement": "Inhibitory concentration MIC (MIC90)", "setting": "Trichophyton tonsurans", "value": "MIC = 5-40 μg/ml"},
      {"measurement": "Inhibitory concentration MIC (MIC90)", "setting": "[10]", "value": "MIC = 100 μg/ml"},
      {"measurement": "Inhibitory concentration MIC (MIC90)", "setting": "Fusarium solani", "value": "MIC = 8-16 μM"},
      {"measurement": "Inhibitory concentration MIC (MIC90)", "setting": "Aspergillus sydowii", "value": "MIC = 2.5-12.5 μg/ml"},
      {"measurement": "Inhibitory concentration MIC (MIC90)", "setting": "Candida spp.", "value": "MIC = 12.5-50 μg/ml"},
      {"measurement": "Inhibitory concentration MIC (MIC90)", "setting": "Cladosporium trichoides", "value": "MIC = 5 μg/ml"},
      {"measurement": "Inhibitory concentration MIC (MIC90)", "setting": "Torula spp", "value": "MIC = 40 μg/ml"},
      {"measurement": "Inhibitory concentration MIC (MIC90)", "setting": "[11]", "value": "MIC = 50 μg/mL"},
      {"measurement": "Inhibitory concentration MIC (MIC90)", "setting": "Cryptococcus curvatus", "value": "MIC = 9 μg/ml"},
      {"measurement": "Inhibitory concentration MIC (MIC90)", "setting": "[12]", "value": "MIC = 25 μg/mL"},
      {"measurement": "Inhibitory concentration MIC (MIC90)", "setting": "Microsporum canis", "value": "MIC = 40 μg/ml"},
      {"measurement": "Inhibitory concentration MIC (MIC90)", "setting": "Trichosporon cutaneum", "value": "MIC = 1.25-18 μg/ml"},
      {"measurement": "Inhibitory concentration MIC (MIC90)", "setting": "Penicillium expansum", "value": "MIC = 16 μM"},
      {"measurement": "Inhibitory concentration MIC (MIC90)", "setting": "Rhizopus spp", "value": "MIC = 25 μg/mL"},
      {"measurement": "Inhibitory concentration MIC (MIC90)", "setting": "Streptococcus mutans", "value": "MIC = 3.1 μg/ml"},
      {"measurement": "Inhibitory concentration MIC (MIC90)", "setting": "Phialophora verrucosa", "value": "MIC = 5-10 μg/ml"},
      {"measurement": "Inhibitory concentration MIC (MIC90)", "setting": "[13]", "value": "MIC = 50 μg/ml"},
      {"measurement": "Inhibitory concentration MIC (MIC90)", "setting": "[14]", "value": "MIC = 6.3 μg/ml"},
      {"measurement": "Inhibitory concentration MIC (MIC90)", "setting": "Microsporum gypseum", "value": "MIC = 20-40 μg/ml"},
      {"measurement": "Inhibitory concentration MIC (MIC90)", "setting": "Cryptococcus neoformans", "value": "MIC = 12.5-50 μg/mL"},
      {"measurement": "Inhibitory concentration MIC (MIC90)", "setting": "Aspergillus tamarii", "value": "MIC = 2.5-12.5 μg/ml"},
      {"measurement": "Inhibitory concentration MIC (MIC90)", "setting": "[15]", "value": "MIC = 25-50 μg/mL"},
      {"measurement": "Inhibitory concentration MIC (MIC90)", "setting": "Pichia membramfaciens", "value": "MIC = 45 μg/ml"}
    ]}
  ]
}
